Values quoted from earlier work in patent publication US6414126B1, “C-aryl glucoside SGLT2 inhibitors and method” (Bristol-Myers Squibb Company, priority 1999, dated 2002).

What was measured:
human SGLT1 = target: T1, human SGLT1 (Homo sapiens, UniProt P13866); conditions: SGLT1 transporter; read-out: Km values for uptake
T1 sequence (P13866 1-664): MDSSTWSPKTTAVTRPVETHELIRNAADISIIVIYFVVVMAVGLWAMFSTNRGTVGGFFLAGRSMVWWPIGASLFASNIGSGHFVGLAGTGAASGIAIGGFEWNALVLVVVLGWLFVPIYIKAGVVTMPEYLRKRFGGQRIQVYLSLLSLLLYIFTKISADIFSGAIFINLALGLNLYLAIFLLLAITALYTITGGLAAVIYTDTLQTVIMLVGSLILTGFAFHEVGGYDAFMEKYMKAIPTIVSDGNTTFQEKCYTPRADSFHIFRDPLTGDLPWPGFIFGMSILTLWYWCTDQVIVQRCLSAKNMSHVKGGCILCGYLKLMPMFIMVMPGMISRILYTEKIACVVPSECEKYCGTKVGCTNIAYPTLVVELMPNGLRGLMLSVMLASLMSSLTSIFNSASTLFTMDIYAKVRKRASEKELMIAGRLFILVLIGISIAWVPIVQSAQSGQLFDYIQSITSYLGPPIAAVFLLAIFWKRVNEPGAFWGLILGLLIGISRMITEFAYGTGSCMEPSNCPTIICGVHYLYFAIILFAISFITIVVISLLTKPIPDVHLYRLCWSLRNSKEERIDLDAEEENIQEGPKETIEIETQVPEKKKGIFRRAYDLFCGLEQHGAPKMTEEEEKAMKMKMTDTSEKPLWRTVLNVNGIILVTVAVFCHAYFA

human SGLT2 = target: T2, human SGLT2 (Homo sapiens, UniProt P31639); conditions: SGLT2 transporter; read-out: Km values for uptake
T2 sequence (P31639 1-672): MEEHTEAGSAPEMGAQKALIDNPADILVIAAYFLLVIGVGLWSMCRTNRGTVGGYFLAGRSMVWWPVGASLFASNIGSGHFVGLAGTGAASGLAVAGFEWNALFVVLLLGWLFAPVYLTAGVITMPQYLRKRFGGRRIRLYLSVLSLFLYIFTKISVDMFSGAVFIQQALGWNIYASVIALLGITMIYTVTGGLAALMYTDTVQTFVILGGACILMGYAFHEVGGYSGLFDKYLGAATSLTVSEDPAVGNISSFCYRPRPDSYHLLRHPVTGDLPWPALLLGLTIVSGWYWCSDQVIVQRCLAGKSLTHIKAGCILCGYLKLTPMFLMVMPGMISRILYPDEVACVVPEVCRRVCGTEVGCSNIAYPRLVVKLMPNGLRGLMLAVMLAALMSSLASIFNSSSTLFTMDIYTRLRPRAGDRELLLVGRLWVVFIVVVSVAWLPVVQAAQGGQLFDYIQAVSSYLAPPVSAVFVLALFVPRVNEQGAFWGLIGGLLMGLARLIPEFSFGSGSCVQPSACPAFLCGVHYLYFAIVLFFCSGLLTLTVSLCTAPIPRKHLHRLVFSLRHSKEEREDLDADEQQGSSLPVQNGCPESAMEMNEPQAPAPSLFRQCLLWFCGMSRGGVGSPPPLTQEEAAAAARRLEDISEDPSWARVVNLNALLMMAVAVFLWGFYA

## CO[C@H]1O[C@H](CO)[C@@H](O)[C@H](O)[C@H]1O [AMG, α-methyl-D-glucopyranoside]
Human SGLT1
  Km: 400 µM
Human SGLT2
  Km: 1600 µM
